# Measurements taken from US20250368678A1, “19-NOR-C3,3-DISUBSTITUTED C21-AZACYCLO-S[…] AND METHOD FOR USING SAME” (SHANDONG LUYE PHARMACEUTICAL CO., LTD., priority 2022, published 2025).
# How the values were obtained:
# [1] = target: T1, α1β2γ2 GABA receptors (α1β2γ2-CHO-TRex stable cell strain) (Homo sapiens, UniProt P14867+P47870); assay: Whole-cell patch clamp, intrasynaptic functional activity (positive allosteric regulation of GABA-induced current); format: cell-based; conditions: patch clamp -60 mV, GABA at EC10-20, α1β2γ2-CHO-TRex cells
# T1 construct: expressed in transfected cells
# T1 sequence (P14867 28-456): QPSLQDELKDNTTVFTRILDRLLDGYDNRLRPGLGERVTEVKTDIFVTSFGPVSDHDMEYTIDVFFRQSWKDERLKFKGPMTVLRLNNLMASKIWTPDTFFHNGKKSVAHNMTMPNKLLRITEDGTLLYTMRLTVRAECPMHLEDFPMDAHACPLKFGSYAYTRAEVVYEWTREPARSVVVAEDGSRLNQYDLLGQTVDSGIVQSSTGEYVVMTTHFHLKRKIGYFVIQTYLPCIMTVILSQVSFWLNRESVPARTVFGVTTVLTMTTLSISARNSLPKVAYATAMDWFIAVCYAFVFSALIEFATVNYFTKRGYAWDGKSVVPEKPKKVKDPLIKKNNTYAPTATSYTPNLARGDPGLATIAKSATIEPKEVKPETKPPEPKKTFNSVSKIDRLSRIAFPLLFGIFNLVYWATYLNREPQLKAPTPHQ
# T1 sequence (P47870 25-512 limits assumed): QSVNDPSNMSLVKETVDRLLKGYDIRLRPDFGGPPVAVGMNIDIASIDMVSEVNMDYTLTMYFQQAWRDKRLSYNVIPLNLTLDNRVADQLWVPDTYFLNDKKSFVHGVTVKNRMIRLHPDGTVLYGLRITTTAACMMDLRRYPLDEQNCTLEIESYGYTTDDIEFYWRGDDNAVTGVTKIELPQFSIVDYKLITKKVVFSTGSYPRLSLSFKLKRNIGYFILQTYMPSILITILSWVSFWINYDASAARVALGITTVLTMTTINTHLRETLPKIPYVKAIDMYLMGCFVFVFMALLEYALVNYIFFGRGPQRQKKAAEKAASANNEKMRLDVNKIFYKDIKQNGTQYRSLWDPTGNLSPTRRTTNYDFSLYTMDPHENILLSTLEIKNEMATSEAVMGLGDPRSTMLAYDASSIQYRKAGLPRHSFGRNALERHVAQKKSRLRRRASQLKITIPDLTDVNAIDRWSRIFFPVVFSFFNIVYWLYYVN
# T1 sequence (P18507 40-475 partner): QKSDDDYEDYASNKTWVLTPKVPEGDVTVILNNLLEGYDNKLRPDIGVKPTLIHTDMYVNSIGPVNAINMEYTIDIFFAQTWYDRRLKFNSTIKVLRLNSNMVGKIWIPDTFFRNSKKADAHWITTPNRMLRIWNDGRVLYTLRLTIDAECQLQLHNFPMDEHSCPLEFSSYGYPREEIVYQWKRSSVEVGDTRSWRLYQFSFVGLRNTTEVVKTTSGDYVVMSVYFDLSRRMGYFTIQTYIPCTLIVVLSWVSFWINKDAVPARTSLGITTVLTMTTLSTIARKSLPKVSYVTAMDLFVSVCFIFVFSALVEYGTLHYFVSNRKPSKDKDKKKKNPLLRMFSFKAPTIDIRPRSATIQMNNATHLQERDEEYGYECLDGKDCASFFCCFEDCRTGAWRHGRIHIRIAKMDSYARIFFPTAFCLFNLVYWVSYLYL
# Description: (§1) The α4β3δ-HEK-FlpIn-TRex stable cell strain was cultured in DMEM+10% FBS complete culture medium, with the selective antibiotics being 10 μg/mL Blasticidin, 100 µg/mL Zeocin, 100 µg/mL Hygromycin, and 0.2 μg/mL Puromycin. The α1β2γ2-CHO-TRex stable cell strain was cultured in DMEM/F12+10% FBS complete culture medium, with the selective antibiotics being 10 μg/mL Blasticidin, 100 μg/mL Zeocin, 300 μg/mL Hygromycin, and […] Puromycin.
# (§2) The day before the patch clamp experiment, cells were seeded onto 12 mm polylysine-coated coverslips and then cultured in 35 mm culture dishes, and tetracycline ([…]) was added to induce the expression of GABA receptors. The extracellular fluid had the following composition (in mM): 140 NaCl, 3 KCl, 1.5 MgCl2, 2 CaCl2, 10 HEPES, and 10 Glucose. After thorough mixing, NaOH was added to adjust the pH to 7.4, and sucrose was added to adjust the osmotic pressure to 300-320 mOsm. The fluid was stored at 4° C. The electrode internal solution had the following composition (in mM): 145 KCl, 1 MgCl2, 5 EGTA, 10 HEPES, and 5 MgATP. After thorough mixing, KOH was added to adjust the pH to 7.3, and sucrose was added to adjust the osmotic pressure to 290-300 mOsm. The solution was filtered through a […] before use.
# (§3) Whole-cell patch clamp recording was mainly employed in this experiment. The membrane potential was clamped at −60 mV, and receptors were activated using GABA at an EC10-20 concentration ([…]). The test compounds were dissolved in 0.1% DMSO, and perfusion was performed for 30 s prior to GABA stimulation. Finally, the positive allosteric regulating effects of the test compounds on α1β2γ2 or α4β3δ were determined.
# (§4) The experimental result for each concentration was expressed as a fold increase in the GABA-induced current caused by the compound. […] At least 5 concentrations are tested to obtain a complete EC50 curve and EC50 values. All experiments were repeated on no less than 3 cells, and data processing was completed using GraphPad prism software. The dose-response curves were fitted using the Hill equation, and the half-maximal activating concentration EC50 and Emax were finally obtained.
# [2] = target: T2, α4β3δ GABA receptors (α4β3δ-HEK-FlpIn-TRex stable cell strain) (Homo sapiens, UniProt P28472+P48169); assay: Whole-cell patch clamp, extrasynaptic functional activity (positive allosteric regulation of GABA-induced current); format: cell-based; conditions: patch clamp -60 mV, GABA at EC10-20, α4β3δ-HEK-FlpIn-TRex cells
# T2 construct: expressed in transfected cells
# T2 sequence (P48169 36-554): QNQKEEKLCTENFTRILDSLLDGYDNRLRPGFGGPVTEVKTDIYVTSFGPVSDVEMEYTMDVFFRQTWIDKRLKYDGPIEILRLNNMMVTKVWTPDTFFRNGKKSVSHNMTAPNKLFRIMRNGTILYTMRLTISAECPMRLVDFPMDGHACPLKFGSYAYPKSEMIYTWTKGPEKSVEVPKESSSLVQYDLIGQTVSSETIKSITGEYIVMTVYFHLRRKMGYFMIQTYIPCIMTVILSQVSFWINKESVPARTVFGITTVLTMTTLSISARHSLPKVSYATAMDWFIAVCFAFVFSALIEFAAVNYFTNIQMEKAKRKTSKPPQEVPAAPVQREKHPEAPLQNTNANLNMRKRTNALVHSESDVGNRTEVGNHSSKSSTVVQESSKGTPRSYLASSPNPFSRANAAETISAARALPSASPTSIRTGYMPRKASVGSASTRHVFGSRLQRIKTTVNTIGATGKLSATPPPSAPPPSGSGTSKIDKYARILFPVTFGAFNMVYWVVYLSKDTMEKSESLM
# T2 sequence (P28472 26-473): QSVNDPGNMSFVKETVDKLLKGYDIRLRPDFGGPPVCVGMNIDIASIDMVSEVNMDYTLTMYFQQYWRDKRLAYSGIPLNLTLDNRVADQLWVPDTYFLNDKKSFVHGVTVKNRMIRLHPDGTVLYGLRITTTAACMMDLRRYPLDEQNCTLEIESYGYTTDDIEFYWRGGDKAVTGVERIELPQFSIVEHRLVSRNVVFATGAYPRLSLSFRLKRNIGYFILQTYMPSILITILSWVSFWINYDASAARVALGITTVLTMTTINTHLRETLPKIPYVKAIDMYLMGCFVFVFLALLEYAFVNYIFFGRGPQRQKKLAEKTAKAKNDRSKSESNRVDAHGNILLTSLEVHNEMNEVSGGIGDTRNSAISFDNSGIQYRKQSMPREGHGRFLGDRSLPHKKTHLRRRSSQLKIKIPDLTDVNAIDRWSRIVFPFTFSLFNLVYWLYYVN
# T2 sequence (O14764 25-452 partner): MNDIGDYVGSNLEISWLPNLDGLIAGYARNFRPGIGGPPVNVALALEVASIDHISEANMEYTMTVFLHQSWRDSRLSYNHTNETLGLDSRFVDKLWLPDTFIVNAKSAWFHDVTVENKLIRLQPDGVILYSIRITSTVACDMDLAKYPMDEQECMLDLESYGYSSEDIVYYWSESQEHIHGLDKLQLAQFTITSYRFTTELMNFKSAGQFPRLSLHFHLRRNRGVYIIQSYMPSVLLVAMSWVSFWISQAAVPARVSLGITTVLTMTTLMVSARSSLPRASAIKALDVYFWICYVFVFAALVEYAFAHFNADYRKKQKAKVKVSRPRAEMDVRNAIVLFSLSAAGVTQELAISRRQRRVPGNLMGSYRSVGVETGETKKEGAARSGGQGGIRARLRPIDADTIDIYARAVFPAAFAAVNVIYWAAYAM
# Description: as §1, §2, §3, §4
# [3] = In vitro liver microsomal stability assay, rat; format: in vitro ADME; conditions: for CLint scaled at 1 µM / half-life at 1 µM / microsomal CLint at 1 µM / T1/2: Rat liver microsomes; for Remaining amount % at 60 min: Rat liver microsomes 0.5 mg/mL, NADPH; for microsomal CLint at 1 µM: read-out: CLint(mic)
# Description: (§5) 1) Preparation of working solutions of test samples: The test samples were diluted with acetonitrile to 100 M.
# (§6) 2) Preparation of a working solution of liver microsomes: liver microsomes were diluted with 100 mM phosphate-buffered saline to 0.56 mg/mL.
# (§7) 3) Preparation of a working solution of reduced nicotinamide adenine dinucleotide (NADPH): A proper amount of NADPH was weighed out and diluted with phosphate-buffered saline to 20 mM, and an equal volume of a 60 mM MgCl2 solution was added.
# (§8) 4) Preparation of a stop solution: Tolbutamide was diluted with acetonitrile to 20 ng/mL, serving as a stop solution containing an internal standard.
# (§9) 1) Incubation anti-adsorption EP tubes were prepared and labeled with species, test/control sample, time points (0, 5, 10, 20, 30, 60 min, Blank60, and NCF60), etc.
# (§10) 2) 2 L of test or control sample working solution, diluted with acetonitrile to 100 M, and 178 L of liver microsome working solution were added to each tube. For the Blank60 tube, 2 L of acetonitrile was added instead of a test sample. The tubes were pre-incubated in a 37° C. water bath for about 10 min, with each sample tested in triplicate.
# (§11) 3) After the pre-incubation was complete, 20 L of NADPH working solution was added to each tube except for the 0 min and NCF60 tubes to start reactions, and 20 L of phosphate-buffered saline (containing 30 mM MgCl2) was added to the NCF60 tube. In the incubation system, the final concentrations of the test and control samples were 1 M, the final concentration of liver microsomes was 0.5 mg/mL, the final concentration of NADPH was 1 mM, and the final concentration of MgCl2 was 3 mM.
# (§12) 4) For the 0 min sample, 600 L of stop solution was added before adding the NADPH working solution. After each sample was incubated for its respective time, 600 L of stop solution was added to stop the reaction.
# (§13) 5) After the reaction was stopped, each sample was vortexed for 30 s and then centrifuged at 13,500 rpm for 10 min. 100 L of the supernatant was transferred to an EP tube, and 100 L Milli-Q water was added. The mixture was well mixed by vortexing and analyzed by LC-MS/MS.
# (§14) 6) Testosterone and dextromethorphan were used as positive control samples under the same conditions to assess the stability and reliability of the system.
# (§15) Parameters of the test samples, including their half-lives, intrinsic clearance rates in liver microsomes, and hepatic intrinsic clearance rates, were calculated based on the percentage of test sample remaining.
# [4] = In vitro liver microsomal stability assay, human; format: in vitro ADME; conditions: for CLint scaled at 1 µM / half-life at 1 µM / microsomal CLint at 1 µM / T1/2: Human liver microsomes; for Remaining amount % at 60 min: Human liver microsomes 0.5 mg/mL, NADPH; for microsomal CLint at 1 µM: read-out: CLint(mic)
# Description: as §5, §6, §7, §8, §9, §10, §11, §12, §13, §14, §15
Compound,EC50 [1] [nM],Emax [1] [%],EC50 [2] [nM],Emax [2] [%],CLint scaled at 1 µM [3] [mL/min/kg],half-life at 1 µM [3] [min],Remaining amount % at 60 min [3] [%],microsomal CLint at 1 µM [3] [µL/min/mg],CLint scaled at 1 µM [4] [mL/min/kg],half-life at 1 µM [4] [min],Remaining amount % at 60 min [4] [%],microsomal CLint at 1 µM [4] [µL/min/mg],T1/2 [3] [min],T1/2 [4] [min]
C[C@@]1(O)CC[C@H]2[C@H](CC[C@@H]3[C@@H]2CC[C@]2(C)[C@@H](C(=O)Cn4cnn(-c5cccc(F)c5)c4=O)CC[C@@H]32)C1 [Compound 1],56,566,10,440,43.6,57.3,44.5,24.2,3.97,330,89.0,4.2,,
C[C@@]1(O)CC[C@H]2[C@H](CC[C@@H]3[C@@H]2CC[C@]2(C)[C@@H](C(=O)Cn4cnn(-c5cccnc5)c4=O)CC[C@@H]32)C1 [Compound 2],,773,,391,187,,11.25,104,52,,18.57,57,11.3,24.1
C[C@@]1(O)CC[C@H]2[C@H](CC[C@@H]3[C@@H]2CC[C@]2(C)[C@@H](C(=O)Cn4cnn(-c5ccccc5)c4=O)CC[C@@H]32)C1 [Compound 3],90,430,29,490,94,26.5,51.77,52,11,118,70.25,12,,
C[C@@]1(O)CC[C@H]2[C@H](CC[C@@H]3[C@@H]2CC[C@]2(C)[C@@H](C(=O)Cn4cnn(-c5ccc(F)cc5)c4=O)CC[C@@H]32)C1 [Compound 4],220,390,170,410,93,27,37.09,51,13,96.3,64.0,14,,
COc1cccc(-n2ncn(CC(=O)[C@H]3CC[C@H]4[C@@H]5CC[C@@H]6C[C@](C)(O)CC[C@@H]6[C@H]5CC[C@]34C)c2=O)c1 [Compound 5],26,410,21,570,176,14.1,14.19,98,24,52.5,43.53,26,,
Cn1ncn(CC(=O)[C@H]2CC[C@H]3[C@@H]4CC[C@@H]5C[C@](C)(O)CC[C@@H]5[C@H]4CC[C@]23C)c1=O [Compound 6],444,242,305,497,117,21.3,15.45,65,10,126,72.92,11,,
C[C@@]1(O)CC[C@H]2[C@H](CC[C@@H]3[C@@H]2CC[C@]2(C)[C@@H](C(=O)Cn4ncn(-c5ccc(F)cc5)c4=O)CC[C@@H]32)C1 [Compound 9],12.4,294,148,428,239,,4.19,133,38,,24.73,42,10.3,32.8
C[C@@]1(O)CC[C@H]2[C@H](CC[C@@H]3[C@@H]2CC[C@]2(C)[C@@H](C(=O)Cn4ccn(-c5cccc(F)c5)c4=O)CC[C@@H]32)C1 [Compound 11],241,594,139,552,276,9,9.24,153,63,19.8,28.02,70,,
C[C@@]1(O)CC[C@H]2[C@H](CC[C@@H]3[C@@H]2CC[C@]2(C)[C@@H](C(=O)Cn4c(=O)n(-c5ccccc5)c5ccccc54)CC[C@@H]32)C1 [Compound 13],,305,,470,,,,,,,,,,
COc1ccc(-n2ncn(CC(=O)[C@H]3CC[C@H]4[C@@H]5CC[C@@H]6C[C@](C)(O)CC[C@@H]6[C@H]5CC[C@]34C)c2=O)cn1 [Compound 17],,389,,474,161,,6.6,90,17,,57.7,19,15.5,72.9
C[C@@]1(O)CC[C@H]2[C@H](CC[C@@H]3[C@@H]2CC[C@]2(C)[C@@H](C(=O)Cn4cnn(-c5ccccc5F)c4=O)CC[C@@H]32)C1 [Compound 18],171,710,107,541,278,9,9.7,154,30,41.7,38.3,33,,
C[C@@]1(O)CC[C@H]2[C@H](CC[C@@H]3[C@@H]2CC[C@]2(C)[C@@H](C(=O)Cn4cnn(-c5cc(F)ccn5)c4=O)CC[C@@H]32)C1 [Compound 35],340,446,68,720,,,,,,,,,,
C[C@@]1(O)CC[C@H]2[C@H](CC[C@@H]3[C@@H]2CC[C@]2(C)[C@@H](C(=O)Cn4cnn(-c5ccnc(C(F)F)c5)c4=O)CC[C@@H]32)C1 [Compound 37],,600,,432,,,,,,,,,,
Cc1cc(-n2ncn(CC(=O)[C@H]3CC[C@H]4[C@@H]5CC[C@@H]6C[C@](C)(O)CC[C@@H]6[C@H]5CC[C@]34C)c2=O)cc(C)n1 [Compound 40],,691,,563,,,,,,,,,,
C[C@@]1(O)CC[C@@]2(C)[C@@H](CC[C@@H]3[C@@H]2CC[C@]2(C)[C@@H](C(=O)Cn4cnn(-c5ccnc(F)c5)c4=O)CC[C@@H]32)C1 [Compound 42],280,736,143,507,,,,,,,,,,
